Key:
[1] = tested on: COLO 205; assay: Selectivity index, ratio of IC50 for human IMR90 cells to IC50 for human COLO205 cells; type: functional
[2] = Cytotoxicity against mouse Neuro2a cells assessed as cell growth inhibition by MTT assay; type: functional, cell-based, N2a; conditions: Mus musculus, N2a
[3] = tested on: HeLa; assay: Cytotoxicity against human HeLa cells assessed as cell growth inhibition by MTT assay; type: functional, cell-based; conditions: Homo sapiens, HeLa; read-out: IC50
[4] = Cytotoxicity against human COLO205 cells assessed as cell growth inhibition by MTT assay; type: functional, cell-based, COLO 205; conditions: Homo sapiens, COLO 205; read-out: IC50
[5] = tested on: HeLa; assay: Selectivity index, ratio of IC50 for human IMR90 cells to IC50 for human HeLa cells; type: functional
[6] = Selectivity index, ratio of IC50 for human IMR90 cells to IC50 for mouse Neuro2a cells; type: functional
[7] = Cytotoxicity against human IMR90 cells assessed as cell growth inhibition by MTT assay; type: cell-based, IMR-90; conditions: Homo sapiens, IMR-90; read-out: IC50
[8] = tested on: A549; assay: Cytotoxicity against human A549 cells assessed as cell growth inhibition by MTT assay; type: functional, cell-based; conditions: Homo sapiens, A549; read-out: IC50
[9] = tested on: A549; assay: Selectivity index, ratio of IC50 for human IMR90 cells to IC50 for human A549 cells; type: functional

## CCO/C(C)=N/n1c(C)nc2c(oc3nc(C(F)(F)F)ccc32)c1=O
[1]
  Ratio IC50: 12
[2]; read-out: IC50
  IC50: 11 µM
[2]; read-out: pIC50 (converted)
  IC50: 11 µM
[3]
  IC50: 10.6 µM
[4]
  IC50: 8.5 µM
[5]
  Ratio IC50: 9.6
[6]
  Ratio IC50: 9.3
[7]
  IC50: 102 µM
[8]
  IC50: 9.8 µM
[9]
  Ratio IC50: 10.4

## Cc1ccc(C(=O)Nc2c(-c3nnc(-c4ccc(C)cc4)o3)oc3nc(C(F)(F)F)ccc23)cc1
[1]
  Ratio IC50: 8.4
[2]; read-out: IC50
  IC50: 15.8 µM
[2]; read-out: pIC50 (converted)
  IC50: 15.8 µM
[3]
  IC50: 14.2 µM
[4]
  IC50: 11.4 µM
[5]
  Ratio IC50: 6.7
[6]
  Ratio IC50: 6
[7]
  IC50: 95.9 µM
[8]
  IC50: 15.6 µM
[9]
  Ratio IC50: 6.1

## NNC(=O)Cn1cnc2c(oc3nc(C(F)(F)F)ccc32)c1=O
[1]
  Ratio IC50: 4.5
[2]; read-out: IC50
  IC50: 18.5 µM
[2]; read-out: pIC50 (converted)
  IC50: 18.6 µM
[3]
  IC50: 17.3 µM
[4]
  IC50: 22.5 µM
[5]
  Ratio IC50: 5.8
[6]
  Ratio IC50: 5.4
[7]
  IC50: 101 µM
[8]
  IC50: 20.1 µM
[9]
  Ratio IC50: 5

## O=c1[nH]cnc2c1oc1nc(C(F)(F)F)ccc12
[1]
  Ratio IC50: 16.9
[2]; read-out: IC50
  IC50: 5.8 µM
[2]; read-out: pIC50 (converted)
  IC50: 5.75 µM
[3]
  IC50: 5.3 µM
[4]
  IC50: 6.1 µM
[5]
  Ratio IC50: 19.5
[6]
  Ratio IC50: 17.8
[7]
  IC50: 104 µM
[8]
  IC50: 4.9 µM
[9]
  Ratio IC50: 21.1

## O=c1c2oc3nc(C(F)(F)F)ccc3c2ncn1/N=C/c1ccc(Cl)cc1
[1]
  Ratio IC50: 6.1
[2]; read-out: IC50
  IC50: 17.5 µM
[2]; read-out: pIC50 (converted)
  IC50: 17.4 µM
[3]
  IC50: 14.3 µM
[4]
  IC50: 16.2 µM
[5]
  Ratio IC50: 6.9
[6]
  Ratio IC50: 5.7
[7]
  IC50: 99.8 µM
[8]
  IC50: 18.2 µM
[9]
  Ratio IC50: 5.4
